Data from publication PMC11123039, “The Helix Ring Peptide U11 from the Venom of the Ant, Tetramorium bicarinatum, Acts as a Putative Pore-Forming Toxin” (Membranes, 2024).

Key:
[1] = system: Shaker IR; assay: Two-electrode voltage clamp, Shaker IR; type: cell-based, Drosophila melanogaster; settings: control toxin, 2.5 μM; Xenopus laevis oocytes, ND96, two-electrode voltage clamp
[2] = system: vertebrate and invertebrate cells; settings: component of Apis mellifera venom; cited from earlier work
Excerpt: Ant venom peptides have previously been classified based on their structure into three main groups: linear, dimeric or inhibitor cystine knot (ICK)-like peptides [for a review, see [2]]. An alternative approach for classification follows their biological activity, with two main characteristics: cytolytic or neurotoxic. […] Such a phenomenon is indicative of cytolysis or cytotoxicity and may be explained by pore formation. […] In non-injected control oocytes, the current ...

[3] = system: voltage-gated sodium (Nav) channels; settings: vertebrates and invertebrates; blocks synaptic transmission in insect CNS; cited from earlier work
Excerpt: Ant venom peptides have previously been classified based on their structure into three main groups: linear, dimeric or inhibitor cystine knot (ICK)-like peptides [for a review, see [2]]. An alternative approach for classification follows their biological activity, with two main characteristics: cytolytic or neurotoxic. […] They often act as amphipathic, helical structures forming pores through biological membranes, disturbing t ...

charybdotoxin
block of Shaker IR currents [1]: clear block

melittin
cytolysis via pore formation [2]: cytolysis via a process of pore formation

poneratoxin
modulation of Nav channels [3]: modulate voltage-gated sodium (Nav) channels of both vertebrates and invertebrates
